Where two headings read alike, the source gives them in different places. Blank lines part the entries; values can stand above or below the compound they belong to.
Legend:
in vitro = assay type: cell-based, human; details: human
Procedure: (§1) Before use in cell-based assays of integrin function, the effect of compounds on cell proliferation was tested using the MTT assay to avoid adhesion results being confounded by cell death (Supplementary Table S1). The effect of compounds on cell adhesion was then initially tested at a single, nontoxic concentration to identify active antagonists for further characterisation; those displaying a promising activity in the adhesion assay were tested at a wider range of concentrations to determine the IC50 (Table 2). […] Nevertheless, it is a cost-effective initial screening method. page 4: Table S1. Cytotoxicity of compounds on the cell lines used in the functional assays (measured by MTT assay). Cells (2000 cells/well for Sk-Mel-2; 1 x 10^4 cells/mL for M14) were incubated for 96 hours at 37 ° C in a total volume of 200 μL/well (180 μL medium + 20 μ L test compound solution). After 96 hours, the medium was replaced by fresh medium containing 0.5 mg/ml (end conc.) MTT per well, incubated for 4 h then the plate processed and read as described in the main text. […] ICT9053 41 naphthyridine 1 NHSO2Mes H Ester 52.6 ± 0.6 72.7 ± 9.8 ICT9065 42 naphthyridine 1 H H Ester >100 - ICT9079 43 naphthyridine 0 NHSO2Mes H Ester ~100 - ICT9061 44 naphthyridineT 1 NHSO2Mes H Ester 46.8 ± 10.7 - […] Ester 65.4 ± 11.1 >100 […] Ester 9.6 ± 5.7 >100 […] Ester >100 - […] Ester 54.6 ± 11.0 - […] Ester >5 3.3 ± 0.8 […] ICT9028 51 pyrimidine 2 NHSO2Ph H Acid >100 - ICT9031 52 pyrimidineT 1 NHSO2Mes H Acid >100 - ICT9090 53 pyrimidineT 2 NHSO2Mes H Acid >50 - ICT9029 54 pyrimidineT 2 NHSO2Ph H Acid >100 - ICT9063 55 naphthyridine 1 NHSO2Mes H Acid 61.7 ± 2.8 - […] Acid 45.5 ± 7.9 >100 […] 42.5 ± 1.8 >50 RGDS >50 - T trans configuration of cyclobutane sidechains.

M14 cells = experiment: cells; assay type: cell-based, human; details: 24 h
Procedure: M14 cells (4 × 10^5/mL in RPMI 1640 medium) were seeded in six-well plates and incubated at 37 °C in a 5% CO2 humidified atmosphere for 48 h. The resulting confluent monolayer was scratched with a sterile P200 pipette tip to create a gap (approximately 2 cm in length and 650 μm in width) in the centre of the well. The medium was removed, and the cells washed with Hank’s balanced salt solution (HBSS) (1 mL) and replaced with a medium containing the test antagonist. After 24 h, the cells were washed twice with HBSS and fixed with ice-pre-cooled methanol for thirty minutes at −20 °C. Following hydration with two washes in PBS, the monolayers were counterstained with Harris’s haematoxylin solution for two minutes, then washed in tap water for one minute and left to dry at room temperature. The plates were observed using an inverted microscope, and digital images captured.
The anti-αvβ3 activity of selected compounds was confirmed in a wound-healing assay (Figure 3). A number of cell lines were initially investigated for their suitability in this assay. The Sk-Mel-2 cell line which adhered well to fibronectin in the adhesion assay migrated very slowly; therefore, M14 melanoma cells which combined high levels of αvβ3 with rapid migration and low levels of proliferation over the assay period (Supplementary Figure S4) were selected.

[1] = Cytotoxicity by MTT assay, 96 h, M14; assay type: cell-based, human; details: human
Procedure: as §1

αvβ3 = molecular target: T1, αvβ3 (Homo sapiens, UniProt P05106+P06756); experiment: Sk-Mel-2 cell adhesion to immobilised fibronectin (cell-binding assay, MTT readout); assay type: cell-based; details: Sk-Mel-2 adhesion to Fn, mean ± SD
T1 construct: endogenous in cells; host or cells: SK-Mel-2 melanoma cells
Procedure: First, 96-well plates (Corning, VWR) were coated overnight at 4 °C with 0.5 μg/well fibronectin (Sigma). SK-Mel-2 cells were trypsinised, washed and resuspended in RPMI medium only at 10^5 cells/mL. Cells (100 µL/well) were treated with compound (DMSO final concentration 0.1%) at the indicated concentration for 4 hrs on a rotary shaker. Plates were washed (3 × PBS) and blocked with PBS/5% BSA for 2 hrs at 37 °C prior to adding the cells. Cells were incubated on the plates at 37 °C in a humidified chamber with 5% CO2 for 1 hr. The plates were washed 3× with PBS and a 200 µL/well RPMI medium containing 10% FCS added. The plates were incubated overnight at 37 °C as above. Finally, 0.5 mg/mL of 3-(4,5-dimethythiazol-2-yl)-2,5-diphenyl tetrazolium bromide (MTT) was added to each well and the plates incubated for a further 4 h. The medium was removed, and the insoluble formazan dissolved in 150 µL of DMSO. Absorbance was measured at 540 nm using a Thermo Multiskan EX (Thermofisher, UK)and Ascent Software (v2.6). Total binding was determined based on controls lacking any compounds (100% binding) in fibronectin-coated wells and uncoated wells blocked with BSA (0% binding) and corrected for background (no cells, fibronectin-coated).
As an initial test of anti-β3 activity, the ability of compounds to inhibit the adhesion of melanoma cells expressing high levels of αvβ3 and low levels of other RGD-binding integrins such as αvβ5 and α5β1 to immobilised fibronectin was evaluated.
Cells were seeded onto precoated plates in the presence or absence of putative antagonists and the number of adherent cells quantified colorimetrically.

αIIbβ3 = molecular target: T2, αIIbβ3 (Homo sapiens, UniProt P05106+P08514); experiment: αIIbβ3/fibrinogen purified protein binding ELISA; details: mean ± SD
T2 construct: purchased Sigma
Procedure: ELISA assays were performed as previously described with minor modifications. Briefly, serial dilutions of compounds were prepared in dimethyl sulfoxide (DMSO). C8 Maxi Immuno modules (Fisher Scientific) were incubated overnight at 4 °C with 0.5 μg/well of fibrinogen (Sigma) in sterile phosphate buffered saline (PBS, 0.2 g/L KCl, 8.0 g/L NaCl, 0.2 KH2PO4, 1.15 g/L Na2HPO4, pH 7.4). All subsequent wash steps were performed using 25 mM Tris, pH 7.6, 150 mM NaCl, 1 mM MnCl2, 1 mg/mL BSA, and binding/inhibition was carried out in 25 mM Tris, pH 7.6, 150 mM NaCl, 1 mM MnCl2, 1 mM MgCl2, 1 mM CaCl2, 1 mg/mL BSA.
Wells were washed and blocked with a blocking solution (PBS, 0.1% Tween 20, 3% BSA) for 1 h at 37 °C. Compounds were added to the wells at indicated concentrations (final 0.5% DMSO) in the presence of 0.5 µg/well αIIbβ3 (Sigma) and incubated at room temp for 1 h. After 3 washes, primary anti-αIIb (1:200 dilution, Santa Cruz Biotech, Heidelberg, Germany) and antigoat–HRP (1:500 dilution, Dako, Agilent, Santa Clara, CA, USA) were added at room temp for 1 h. The wells were washed and incubated with 0.1 mg/mL tetra-methylbenzidine (Sigma) for 25 min and the reaction was stopped with 1N H2SO4 (100 μL/well). The absorbance was measured at 450 nm using a Multiscan Spectrum reader (Thermo Scientific, Thermofisher, UK) and SkanIT RE (v2.4.4.5) software. Results were plotted as percent binding vs. log concentration and IC50 values determined.

Sk-Mel-2 = experiment: in vitro; assay type: cell-based, human
Procedure: as §1

platelet aggregation = experiment: ADP-induced platelet aggregation in hirudin-treated whole blood (ex vivo); assay type: cell-based, human; details: ADP 6.4 μM, 100 μM
Procedure: 2.7. Platelet Aggregation Assay
Platelet aggregation was measured in hirudin-anticoagulated whole blood from a healthy donor with ADP as agonist (end concentration 6.4 μM) using a Multiplate® impedance aggregometer (Dynabyte Informationssysteme GmbH, Munich, Germany). At 37 °C, cells were charged with 300 μL of saline, 300 μL of blood, 1 μL of compound (0.1% DMSO) and incubated for 3 min. The agonist was added and the increase in electrical impedance measured from 2 electrode pairs/cell for 6 min, transformed into arbitrary units (AU), and the area under the curve was calculated.

M14 = experiment: Cytotoxicity by MTT assay, 96 h, M14; assay type: cell-based, human; details: MTT, 96 hours
Procedure: as §1

T1 sequence (P06756 31-889 limits assumed): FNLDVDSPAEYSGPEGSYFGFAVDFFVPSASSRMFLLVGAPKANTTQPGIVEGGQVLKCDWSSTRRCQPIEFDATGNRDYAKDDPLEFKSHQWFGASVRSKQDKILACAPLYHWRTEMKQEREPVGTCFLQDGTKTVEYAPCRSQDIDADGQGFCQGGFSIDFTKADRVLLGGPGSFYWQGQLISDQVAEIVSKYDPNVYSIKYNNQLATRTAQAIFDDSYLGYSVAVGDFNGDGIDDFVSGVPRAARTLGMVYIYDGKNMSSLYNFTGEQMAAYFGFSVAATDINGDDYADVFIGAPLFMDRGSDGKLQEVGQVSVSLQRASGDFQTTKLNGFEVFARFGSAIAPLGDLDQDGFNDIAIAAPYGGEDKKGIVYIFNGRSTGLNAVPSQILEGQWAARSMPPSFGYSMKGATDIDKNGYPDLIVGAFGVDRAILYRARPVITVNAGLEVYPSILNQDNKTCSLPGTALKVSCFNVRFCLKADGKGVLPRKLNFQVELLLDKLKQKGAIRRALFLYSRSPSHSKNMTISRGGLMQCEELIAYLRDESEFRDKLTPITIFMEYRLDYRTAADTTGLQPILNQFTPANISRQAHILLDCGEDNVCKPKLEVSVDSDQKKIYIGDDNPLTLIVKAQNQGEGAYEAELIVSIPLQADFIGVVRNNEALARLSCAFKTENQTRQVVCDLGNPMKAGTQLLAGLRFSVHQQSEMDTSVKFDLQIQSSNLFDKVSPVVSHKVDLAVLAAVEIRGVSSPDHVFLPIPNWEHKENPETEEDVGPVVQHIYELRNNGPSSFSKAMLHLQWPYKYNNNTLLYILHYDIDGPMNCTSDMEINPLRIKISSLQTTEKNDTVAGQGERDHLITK
T1 sequence (P06756 891-1048 partner limits assumed): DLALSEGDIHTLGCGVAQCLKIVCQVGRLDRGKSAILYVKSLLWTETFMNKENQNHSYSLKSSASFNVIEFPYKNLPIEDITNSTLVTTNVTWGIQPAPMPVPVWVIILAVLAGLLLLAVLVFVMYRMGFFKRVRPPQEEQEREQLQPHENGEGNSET
T1 sequence (P05106 27-788): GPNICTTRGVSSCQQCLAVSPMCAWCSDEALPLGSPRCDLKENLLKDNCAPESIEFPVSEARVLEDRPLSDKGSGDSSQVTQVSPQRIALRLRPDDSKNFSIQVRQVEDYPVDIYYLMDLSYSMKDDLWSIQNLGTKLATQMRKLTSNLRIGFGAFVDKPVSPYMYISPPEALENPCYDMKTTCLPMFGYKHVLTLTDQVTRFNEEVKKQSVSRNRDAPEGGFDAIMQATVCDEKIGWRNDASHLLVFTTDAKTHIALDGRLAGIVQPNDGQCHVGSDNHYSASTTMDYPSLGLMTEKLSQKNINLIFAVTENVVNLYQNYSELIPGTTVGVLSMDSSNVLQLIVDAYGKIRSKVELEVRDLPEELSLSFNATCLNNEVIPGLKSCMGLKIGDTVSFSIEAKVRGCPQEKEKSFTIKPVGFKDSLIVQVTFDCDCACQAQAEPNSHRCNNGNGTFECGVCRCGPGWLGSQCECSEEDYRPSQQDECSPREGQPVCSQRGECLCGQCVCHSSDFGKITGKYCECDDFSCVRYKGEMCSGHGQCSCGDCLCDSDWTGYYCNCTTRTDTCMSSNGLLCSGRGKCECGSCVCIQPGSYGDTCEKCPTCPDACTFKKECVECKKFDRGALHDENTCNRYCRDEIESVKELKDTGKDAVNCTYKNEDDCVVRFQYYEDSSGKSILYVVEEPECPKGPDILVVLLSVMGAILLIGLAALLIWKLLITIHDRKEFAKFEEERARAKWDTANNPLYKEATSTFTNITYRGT
T2 sequence (P08514 32-887 limits assumed): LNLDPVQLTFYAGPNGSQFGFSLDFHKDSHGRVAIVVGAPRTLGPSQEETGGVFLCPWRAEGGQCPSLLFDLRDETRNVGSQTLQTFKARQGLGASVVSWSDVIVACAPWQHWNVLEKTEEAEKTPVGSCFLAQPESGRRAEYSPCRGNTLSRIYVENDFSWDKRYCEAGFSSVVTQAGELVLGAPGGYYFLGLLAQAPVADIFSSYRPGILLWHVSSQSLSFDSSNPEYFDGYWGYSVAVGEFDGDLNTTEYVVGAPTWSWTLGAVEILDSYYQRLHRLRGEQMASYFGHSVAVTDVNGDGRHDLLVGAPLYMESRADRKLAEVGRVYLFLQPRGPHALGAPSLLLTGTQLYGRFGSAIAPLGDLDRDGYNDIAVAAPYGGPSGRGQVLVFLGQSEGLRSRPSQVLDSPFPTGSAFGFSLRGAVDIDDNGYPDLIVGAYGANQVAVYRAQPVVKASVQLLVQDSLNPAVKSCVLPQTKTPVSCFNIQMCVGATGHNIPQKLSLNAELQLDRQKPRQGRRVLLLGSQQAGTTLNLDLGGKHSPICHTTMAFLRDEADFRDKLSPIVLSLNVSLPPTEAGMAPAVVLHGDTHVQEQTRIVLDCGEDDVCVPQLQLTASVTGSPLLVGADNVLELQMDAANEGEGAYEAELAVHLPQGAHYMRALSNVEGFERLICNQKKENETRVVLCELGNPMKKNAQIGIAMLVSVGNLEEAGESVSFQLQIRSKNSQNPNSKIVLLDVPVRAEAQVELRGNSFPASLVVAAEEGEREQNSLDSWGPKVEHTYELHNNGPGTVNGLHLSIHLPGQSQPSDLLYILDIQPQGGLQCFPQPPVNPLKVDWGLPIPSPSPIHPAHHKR
T2 sequence (P08514 891-1039 partner limits assumed): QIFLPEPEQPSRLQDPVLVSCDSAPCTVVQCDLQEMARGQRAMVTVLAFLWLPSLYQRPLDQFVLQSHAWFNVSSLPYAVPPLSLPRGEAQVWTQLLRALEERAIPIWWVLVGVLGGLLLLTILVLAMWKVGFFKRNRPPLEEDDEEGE
T2 sequence (P05106 27-788): as the sequence (P05106 27-788) above

IC50 at 96 h (in vitro): 42.5 ± 1.8 µM
IC50 (M14 cells): 4 ± 0.07 µM
SMILES: CC(C)[C@@H]1NC(=O)[C@@H](Cc2ccccc2)NC(=O)[C@H](CC(=O)O)NC(=O)CNC(=O)[C@H](CCCNC(=N)N)NC1=O [cRGDfV, reference compound]
IC50 at 96 h [1]: > 50 µM

IC50 at 96 h (in vitro): > 100 µM
IC50 (M14 cells; Homo sapiens, M14 scratch wound, mean ± SD, read-out: Migration IC50): 4.8 ± 0.2 µM
melting point: 94 to 95 °C
SMILES: COC(=O)CCNC(=O)C1CC(CCCNc2ncccn2)C1 (stereo not drawn) [ICT9003 22, 3-({3-[3-(Pyrimidin-2-ylamino)-propyl]-cyclobutanecarbonyl}-amino)-propionic acid methyl ester]
IC50 at 96 h ([1]; M14 cells, MTT, 96 hours, read-out: M14 IC50 (cytotoxicity)): > 100 µM

IC50 at 96 h (in vitro): > 50 µM
inhibition at 5 µM (αvβ3; 5 μM): 68.5 ± 29.1%
inhibition at 50 µM (αvβ3; 50 μM): 45.8 ± 16.6%
SMILES: NC(N)=NCCC[C@H](N)C(=O)NCC(=O)N[C@@H](CC(=O)O)C(=O)N[C@@H](CO)C(=O)O [RGDS, reference compound]

% Inhibition (αIIbβ3/Fg) @ 50 μM (αIIbβ3; 50 μM): 0 ± 9.8%
IC50 (αIIbβ3; read-out: IC50 (αIIbβ3/Fg)): > 50 µM
IC50 (Sk-Mel-2): 9.6 ± 5.7 µM
IC50 (M14 cells; M14 scratch wound, mean ± SD, read-out: Migration IC50): < 0.1 µM
Adhesion % Inhibition @ 5 μM (αvβ3; 5 μM): 98.4 ± 1.9%
IC50 (αvβ3): 0.34 ± 0.33 µM
SMILES: COC(=O)[C@H](CNC(=O)[C@H]1C[C@H](CCc2ccc3c(n2)NCCC3)C1)NS(=O)(=O)c1c(C)cc(C)cc1C [ICT9055 46, (S)-methyl 3-((1r,3r)-3-(2-(5,6,7,8-tetrahydro-1,8-naphthyridin-2-yl)ethyl)cyclobutanecarboxamido)-2-(2,4,6-trimethylphenylsulfonamido)propanoate]
% Inhibition (Platelet Aggregation) @ 100 μM (platelet aggregation): 5.6%
IC50 (M14): > 100 µM

— article PMC10452181, “Synthesis and Biological Evaluation of Cyclobutane-Based β3 Integrin Antagonists: A Novel Approach to Targeting Integrins for Cancer Therapy” (Cancers, 2023)
